Measured values as given in ChEMBL document CHEMBL4725364, “Discovery of a Copper-Based Mcl-1 Inhibitor as an Effective Antitumor Agent” (J Med Chem, 2020).

Key:
K562 = experiment: Cytotoxicity against human K562 cells after 24 hrs by MTT assay; format: functional, cell-based; conditions: K562, 24 h
NCI-H929 = experiment: Cytotoxicity against human NCI-H929 cells after 24 hrs by MTT assay; format: functional, cell-based; conditions: NCI-H929, 24 h
MM1.S = experiment: Cytotoxicity against human MM1.S cells after 24 hrs by MTT assay; format: functional, cell-based
[1] = Cytotoxicity against human MOLP8 cells after 24 hrs by MTT assay; format: functional, cell-based; conditions: MOLP-8, 24 h
LP-1 = experiment: Cytotoxicity against human LP-1 cells after 24 hrs by MTT assay; format: functional, cell-based; conditions: LP-1, 24 h
[2] = target: T1, Induced myeloid leukemia cell differentiation protein Mcl-1 (Homo sapiens, UniProt Q07820); experiment: Inhibition of biotinylated Bim peptide (81 to 106 residues) binding to His-tagged Mcl-1 (171 to 327 residues) (unknown origin) expressed in Escherichia coli BL21 (DE3) cells preincubated for 1 hr followed by biotinylated Bim peptide addition measured after 2 hrs by ELISA
T1 sequence (Q07820 whole entry, the tested form may be a part): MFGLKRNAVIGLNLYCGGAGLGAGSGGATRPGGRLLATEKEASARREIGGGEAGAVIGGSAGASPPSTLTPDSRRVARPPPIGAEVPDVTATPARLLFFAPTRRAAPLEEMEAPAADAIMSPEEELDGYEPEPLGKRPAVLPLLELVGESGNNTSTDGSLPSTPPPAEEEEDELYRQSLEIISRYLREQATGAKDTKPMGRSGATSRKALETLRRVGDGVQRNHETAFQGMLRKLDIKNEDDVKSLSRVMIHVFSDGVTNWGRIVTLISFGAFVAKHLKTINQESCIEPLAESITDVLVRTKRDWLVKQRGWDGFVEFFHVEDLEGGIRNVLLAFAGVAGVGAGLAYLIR

L-363 = experiment: Cytotoxicity against human L-363 cells after 24 hrs by MTT assay; format: functional, cell-based; conditions: L-363, 24 h
[3] = target: T1, Induced myeloid leukemia cell differentiation protein Mcl-1; experiment: Inhibition of N-terminal biotin-labeled BIM BH3 peptide (141 to 166 residues) binding to His-tagged Mcl-1 (171 to 327 residues) (unknown origin) expressed in Escherichia coli BL21 (DE3) cells incubated for >=30 mins by […]
KMS-12-PE = experiment: Cytotoxicity against human KMS-12-PE cells after 24 hrs by MTT assay; format: functional, cell-based
[4] = target: T1, Induced myeloid leukemia cell differentiation protein Mcl-1; experiment: Displacement of Flu-BID/FAM-BID from His-tagged Mcl-1 (171 to 327 residues) (unknown origin) expressed in Escherichia coli BL21 (DE3) cells incubated for 3 hrs by fluorescence polarization assay

**Q.** What does the source list for c1ccc(-c2nccc3c2[nH]c2ccccc23)nc1?
**A.** IC50 (K562): > 40 µM; IC50 (NCI-H929): > 40 µM; IC50 (MM1.S): > 40 µM; IC50 [1]: > 40 µM; IC50 (LP-1): > 40 µM; IC50 [2]: > 10 µM; IC50 (L-363): > 40 µM; IC50 [3]: > 10 µM; IC50 (KMS-12-PE): > 40 µM; Ki [4]: > 10 µM

**Q.** With c1ccc(Cn2c3ccccc3c3ccnc(-c4ccccn4)c32)cc1 as the compound, how does the IC50 (K562) read?
**A.** 32.8 µM

**Q.** What about the IC50 (NCI-H929) of the same compound?
**A.** 37.4 µM

**Q.** And the IC50 (MM1.S)?
**A.** > 40 µM

**Q.** And the IC50 [1]?
**A.** > 40 µM

**Q.** What about the IC50 (LP-1) of the same compound?
**A.** > 40 µM

**Q.** And the IC50 [2]?
**A.** > 10 µM

**Q.** And the IC50 (L-363)?
**A.** > 40 µM

**Q.** What about the IC50 [3] of the same compound?
**A.** > 10 µM

**Q.** What about the IC50 (KMS-12-PE) of the same compound?
**A.** > 40 µM

**Q.** What about the Ki [4] of the same compound?
**A.** 6.13 µM

**Q.** With Cc1ccc(Cn2c3ccccc3c3ccnc(-c4ccccn4)c32)cc1 as the compound, how does the IC50 (K562) read?
**A.** 22.6 µM

**Q.** And the IC50 (NCI-H929)?
**A.** 17.9 µM

**Q.** And the IC50 (MM1.S)?
**A.** > 40 µM

**Q.** What about the IC50 [1] of the same compound?
**A.** 27.5 µM

**Q.** What about the IC50 (LP-1) of the same compound?
**A.** 25.8 µM

**Q.** What about the IC50 [2] of the same compound?
**A.** > 10 µM

**Q.** What about the IC50 (L-363) of the same compound?
**A.** 33.5 µM

**Q.** And the IC50 [3]?
**A.** 9.08 µM

**Q.** What about the IC50 (KMS-12-PE) of the same compound?
**A.** > 40 µM

**Q.** What about the Ki [4] of the same compound?
**A.** 4.93 µM

**Q.** What does the source list for c1ccc(-c2nccc3c4ccccc4n(CC4CC4)c23)nc1?
**A.** IC50 (K562): > 40 µM; IC50 (NCI-H929): > 40 µM; IC50 (MM1.S): > 40 µM; IC50 [1]: > 40 µM; IC50 (LP-1): > 40 µM; IC50 [2]: > 10 µM; IC50 (L-363): > 40 µM; IC50 [3]: > 10 µM; IC50 (KMS-12-PE): > 40 µM; Ki [4]: > 10 µM

**Q.** With CCOCCn1c2ccccc2c2ccnc(-c3ccccn3)c21 as the compound, how does the IC50 (K562) read?
**A.** > 40 µM

**Q.** And the IC50 (NCI-H929)?
**A.** > 40 µM

**Q.** And the IC50 (MM1.S)?
**A.** > 40 µM

**Q.** What about the IC50 [1] of the same compound?
**A.** > 40 µM

**Q.** What about the IC50 (LP-1) of the same compound?
**A.** > 40 µM

**Q.** What about the IC50 [2] of the same compound?
**A.** > 10 µM

**Q.** What about the IC50 (L-363) of the same compound?
**A.** > 40 µM

**Q.** And the IC50 [3]?
**A.** > 10 µM

**Q.** What about the IC50 (KMS-12-PE) of the same compound?
**A.** > 40 µM

**Q.** And the Ki [4]?
**A.** > 10 µM

**Q.** Which IC50 (K562) does the source give for c1ccc(OCCn2c3ccccc3c3ccnc(-c4ccccn4)c32)cc1 here?
**A.** > 40 µM

**Q.** What about the IC50 (NCI-H929) of the same compound?
**A.** > 40 µM

**Q.** And the IC50 (MM1.S)?
**A.** > 40 µM

**Q.** And the IC50 [1]?
**A.** > 40 µM

**Q.** And the IC50 (LP-1)?
**A.** > 40 µM

**Q.** What about the IC50 [2] of the same compound?
**A.** > 10 µM

**Q.** What about the IC50 (L-363) of the same compound?
**A.** > 40 µM

**Q.** And the IC50 [3]?
**A.** > 10 µM

**Q.** And the IC50 (KMS-12-PE)?
**A.** > 40 µM

**Q.** And the Ki [4]?
**A.** > 10 µM

**Q.** Which IC50 (K562) does the source give for c1ccc(-c2nccc3c4ccccc4n(Cc4ccc5ccccc5c4)c23)nc1 here?
**A.** > 40 µM

**Q.** And the IC50 (NCI-H929)?
**A.** > 40 µM

**Q.** What about the IC50 (MM1.S) of the same compound?
**A.** > 40 µM

**Q.** What about the IC50 [1] of the same compound?
**A.** > 40 µM

**Q.** And the IC50 (LP-1)?
**A.** > 40 µM

**Q.** And the IC50 [2]?
**A.** > 10 µM

**Q.** And the IC50 (L-363)?
**A.** > 40 µM

**Q.** What about the IC50 [3] of the same compound?
**A.** 8.52 µM

**Q.** What about the IC50 (KMS-12-PE) of the same compound?
**A.** > 40 µM

**Q.** And the Ki [4]?
**A.** 6.61 µM

**Q.** Which IC50 (K562) does the source give for Fc1ccc(Cn2c3ccccc3c3ccnc(-c4ccccn4)c32)cc1 here?
**A.** 28.9 µM

**Q.** And the IC50 (NCI-H929)?
**A.** 25.4 µM

**Q.** And the IC50 (MM1.S)?
**A.** > 40 µM

**Q.** What about the IC50 [1] of the same compound?
**A.** 34.7 µM

**Q.** And the IC50 (LP-1)?
**A.** 33.6 µM

**Q.** What about the IC50 [2] of the same compound?
**A.** > 10 µM

**Q.** And the IC50 (L-363)?
**A.** > 40 µM

**Q.** What about the IC50 [3] of the same compound?
**A.** > 10 µM

**Q.** What about the IC50 (KMS-12-PE) of the same compound?
**A.** > 40 µM

**Q.** What about the Ki [4] of the same compound?
**A.** 5.52 µM

**Q.** For Cc1nn(C)c(COc2ccc(N3CCN(S(=O)(=O)N(C)C)CC3)cc2)c1-c1cccc2c(CCCOc3cccc4ccccc34)c(C(=O)O)n(CCN3CCOCC3)c12, which IC50 (K562) is on record?
**A.** 13.9 µM

**Q.** What about the IC50 (NCI-H929) of the same compound?
**A.** 8.6 µM

**Q.** What about the IC50 (MM1.S) of the same compound?
**A.** > 40 µM

**Q.** And the IC50 [1]?
**A.** 9.7 µM

**Q.** What about the IC50 (LP-1) of the same compound?
**A.** 10.6 µM

**Q.** And the IC50 [2]?
**A.** 0.0125 µM

**Q.** What about the IC50 (L-363) of the same compound?
**A.** 11.8 µM

**Q.** What about the IC50 [3] of the same compound?
**A.** 0.0088 µM

**Q.** What about the IC50 (KMS-12-PE) of the same compound?
**A.** > 40 µM

**Q.** What about the Ki [4] of the same compound?
**A.** 0.0047 µM

**Q.** With c1ccc(COCCn2c3ccccc3c3ccnc(-c4ccccn4)c32)cc1 as the compound, how does the IC50 (K562) read?
**A.** > 40 µM

**Q.** And the IC50 (NCI-H929)?
**A.** > 40 µM

**Q.** And the IC50 (MM1.S)?
**A.** > 40 µM

**Q.** And the IC50 [1]?
**A.** > 40 µM

**Q.** And the IC50 (LP-1)?
**A.** > 40 µM

**Q.** What about the IC50 [2] of the same compound?
**A.** > 10 µM

**Q.** And the IC50 (L-363)?
**A.** > 40 µM

**Q.** What about the IC50 [3] of the same compound?
**A.** > 10 µM

**Q.** And the IC50 (KMS-12-PE)?
**A.** > 40 µM

**Q.** What about the Ki [4] of the same compound?
**A.** 7.88 µM

**Q.** For CCn1c2ccccc2c2ccnc(-c3ccccn3)c21, which IC50 (K562) is on record?
**A.** > 40 µM

**Q.** What about the IC50 (NCI-H929) of the same compound?
**A.** > 40 µM

**Q.** And the IC50 (MM1.S)?
**A.** > 40 µM

**Q.** What about the IC50 [1] of the same compound?
**A.** > 40 µM

**Q.** What about the IC50 (LP-1) of the same compound?
**A.** > 40 µM

**Q.** And the IC50 [2]?
**A.** > 10 µM

**Q.** What about the IC50 (L-363) of the same compound?
**A.** > 40 µM

**Q.** What about the IC50 [3] of the same compound?
**A.** > 10 µM

**Q.** And the IC50 (KMS-12-PE)?
**A.** > 40 µM

**Q.** What about the Ki [4] of the same compound?
**A.** > 10 µM

**Q.** For c1ccc(CCn2c3ccccc3c3ccnc(-c4ccccn4)c32)cc1, which IC50 (K562) is on record?
**A.** 17.9 µM

**Q.** What about the IC50 (NCI-H929) of the same compound?
**A.** 14.3 µM

**Q.** What about the IC50 (MM1.S) of the same compound?
**A.** > 40 µM

**Q.** What about the IC50 [1] of the same compound?
**A.** 21.4 µM

**Q.** What about the IC50 (LP-1) of the same compound?
**A.** 18.8 µM

**Q.** What about the IC50 [2] of the same compound?
**A.** > 10 µM

**Q.** And the IC50 (L-363)?
**A.** 24.9 µM

**Q.** And the IC50 [3]?
**A.** 8.81 µM

**Q.** What about the IC50 (KMS-12-PE) of the same compound?
**A.** > 40 µM

**Q.** And the Ki [4]?
**A.** 3.13 µM
